In the case of C/C=C(\C)c1nc2ccc3nc(Nc4c(Cl)cccc4Cl)n(C)c3c2c(=O)[nH]1 [Example 45], the melting point is reported as 278 °C (dec.).
In the case of Cn1c(Nc2c(Cl)cccc2Cl)nc2ccc3nc(-c4cc5ccccc5o4)[nH]c(=O)c3c21 [Example 39], the melting point is reported as > 300 °C.
Cn1c(Nc2c(Cl)cccc2Cl)nc2ccc3nc(C4=CC(O)CC4)[nH]c(=O)c3c21 (stereo not shown) [Example 66] gave a melting point of 285 °C.
In the case of Cn1c(Nc2c(Cl)cccc2Cl)nc2ccc3nc(-c4csc([C@H]5CCCN5C(=O)OCc5ccccc5)n4)[nH]c(=O)c3c21 [Example 73], the melting point is reported as 209 °C.
CN1CCC=C(c2nc3ccc4nc(Nc5c(Cl)cccc5Cl)n(C)c4c3c(=O)[nH]2)C1 [Example 54] gave a melting point of 255 °C.
With Cn1c(Nc2c(Cl)cccc2Cl)nc2ccc3nc(-c4csc(-c5cccc([N+](=O)[O-])c5)n4)[nH]c(=O)c3c21 [Example 24] the melting point was > 300 °C.
Molecule C/C(=C\c1ccccc1C#N)c1nc2ccc3nc(Nc4c(Cl)cccc4Cl)n(C)c3c2c(=O)[nH]1 [Example 102] has a melting point of 284 to 288 °C.
With Cc1ccoc1-c1nc2ccc3nc(Nc4c(Cl)cccc4Cl)n(C)c3c2c(=O)[nH]1 [Example 58] the melting point was 304 to 310 °C (dec.).
Molecule Cn1c(Nc2c(Cl)cccc2Cl)nc2ccc3nc(-c4ccc(Br)o4)[nH]c(=O)c3c21 [Example 57] has a melting point of 280 to 283 °C.
With Cn1c(Nc2c(Cl)cccc2Cl)nc2ccc3nc(-c4nc(-c5ccc(OC(F)(F)F)cc5)no4)[nH]c(=O)c3c21 [Example 32] the melting point was > 300 °C.
For Cn1c(Nc2c(Cl)cccc2Cl)nc2ccc3nc(-c4cccc(S(=O)(=O)N5CCN(C(=O)CO)CC5)c4)[nH]c(=O)c3c21 [Example 91], the melting point was > 300 °C.
Work on Cn1c(Nc2c(Cl)cccc2Cl)nc2ccc3nc(-c4csc(CC5CCCN(C(=O)OCc6ccccc6)C5)n4)[nH]c(=O)c3c21 (stereo not shown) [Example 76] yielded a melting point of 155 to 160 °C.
In the case of C/C(=C\c1cc(N)cc(N)c1)c1nc2ccc3nc(Nc4c(Cl)cccc4Cl)n(C)c3c2c(=O)[nH]1 [Example 99], the melting point is reported as 195 to 200 °C (dec.).
With C/C(=C\c1cccc(NC(=N)N)c1)c1nc2ccc3nc(Nc4c(Cl)cccc4Cl)n(C)c3c2c(=O)[nH]1 [Example 101] the melting point was 170 °C (dec.).
In the case of Cc1nc(-c2nc3ccc4nc(Nc5c(Cl)cccc5Cl)n(C)c4c3c(=O)[nH]2)cs1 [Example 79], the melting point is reported as 295 °C (dec.).
With Cn1c(Nc2c(Cl)cccc2Cl)nc2ccc3nc(-c4ccc(-c5ccccc5[N+](=O)[O-])o4)[nH]c(=O)c3c21 [Example 55] the melting point was 289 to 292 °C.
With Cn1c(Nc2c(Cl)cccc2Cl)nc2ccc3nc(-c4csc(CC5CCCNC5)n4)[nH]c(=O)c3c21 (stereo not shown) [Example 78] the melting point was 161 to 166 °C.
Work on Cn1c(Nc2c(Cl)cccc2Cl)nc2ccc3nc(C4CCCC4)[nH]c(=O)c3c21 [Example 50] yielded a melting point of 283 to 284 °C.
With Cn1c(Nc2c(Cl)cccc2Cl)nc2ccc3nc(C4=CCCC4)[nH]c(=O)c3c21 [Example 35] the melting point was 295 °C (dec.).
In the case of CC(=O)OCC(=O)N1CCN(S(=O)(=O)c2cccc(-c3nc4ccc5nc(Nc6c(Cl)cccc6Cl)n(C)c5c4c(=O)[nH]3)c2)CC1 [Example 85], the melting point is reported as 246 °C (dec.).
With Cn1c(Nc2c(Cl)cccc2Cl)nc2ccc3nc(C4=CCN(C(=O)OC(C)(C)C)C4)[nH]c(=O)c3c21 [Example 83] the melting point was 206 to 208 °C.
In the case of CNc1nc2ccc3nc(Nc4c(Cl)cccc4Cl)n(C)c3c2c(=O)[nH]1 [Example 62], the melting point is reported as 198 to 204 °C.
Work on Cn1c(Nc2c(Cl)cccc2Cl)nc2ccc3nc(-c4cccc(S(=O)(=O)N5CCNCC5)c4)[nH]c(=O)c3c21 [Example 68] yielded a melting point of 210 °C.
In the case of C=C(C)c1nc2ccc3nc(Nc4c(Cl)cccc4Cl)n(C)c3c2c(=O)[nH]1 [Example 33], the melting point is reported as > 300 °C.
For Cn1c(Nc2c(Cl)cccc2Cl)nc2ccc3nc(-c4cccc(S(=O)(=O)N5CCN(C(=N)N)CC5)c4)[nH]c(=O)c3c21 [Example 90], the melting point was 215 °C.
For Cn1c(Nc2c(Cl)cccc2Cl)nc2ccc3nc(-c4csc(-c5cccc(N)c5)n4)[nH]c(=O)c3c21 [Example 36], the melting point was 240 °C (dec.).
For Cn1c(Nc2c(Cl)cccc2Cl)nc2ccc3nc(C4=CCC(C#N)C4)[nH]c(=O)c3c21 (stereo not shown) [Example 69], the melting point was > 295 °C (dec.).
With CCn1c(Nc2c(Cl)cccc2Cl)nc2ccc3nc[nH]c(=O)c3c21 [Example 5, 2-(2,6-Dichlorophenylamino)-1-ethyl-1,8-dihydro-9H-imidazo[4,5-f]quinazoline-9-one] the melting point was > 300 °C.
In the case of Cn1c(Nc2c(Cl)cccc2Cl)nc2ccc3nc(Nc4ccccc4)[nH]c(=O)c3c21 [Example 31], the melting point is reported as 185 to 192 °C.
Molecule Cn1c(Nc2c(Cl)cccc2Cl)nc2ccc3nc(C4=CC5CN(C(=O)OC(C)(C)C)CC5C4)[nH]c(=O)c3c21 (stereo not shown) [Example 94] has a melting point of 210 to 215 °C.
For Cn1c(Nc2c(Cl)cccc2Cl)nc2ccc3nc(C4CC4)[nH]c(=O)c3c21 [Example 59], the melting point was > 300 °C.
With C/C(=C\c1ccccc1N)c1nc2ccc3nc(Nc4c(Cl)cccc4Cl)n(C)c3c2c(=O)[nH]1 [Example 80] the melting point was 310 to 313 °C.
For CC(C)=C(C)c1nc2ccc3nc(Nc4c(Cl)cccc4Cl)n(C)c3c2c(=O)[nH]1 [Example 63], the melting point was > 300 °C.
With Cn1c(Nc2c(Cl)cccc2Cl)nc2ccc3nc(-c4ccc(S(=O)(=O)N5CCN(C(=O)OC(C)(C)C)CC5)cc4)[nH]c(=O)c3c21 [Example 96] the melting point was 190 °C.
For Cn1c(Nc2c(Cl)cccc2Cl)nc2ccc3nc(-c4csc([C@@H]5CCCC[C@H]5N)n4)[nH]c(=O)c3c21 [Example 77], the melting point was 295 to 300 °C (dec.).
For Cn1c(Nc2c(Cl)cccc2Cl)nc2ccc3nc(C(=O)c4c[nH]c5ccccc45)[nH]c(=O)c3c21 [Example 47], the melting point was > 300 °C.
In the case of Cn1c(Nc2c(Cl)cccc2Cl)nc2ccc3nc(-c4cnc(-c5ccccc5)o4)[nH]c(=O)c3c21 [Example 26], the melting point is reported as > 290 °C.
For Cc1ccccc1-c1nc2ccc3nc(Nc4c(Cl)cccc4Cl)n(C)c3c2c(=O)[nH]1 [Example 38], the melting point was > 300 °C.
In the case of Cn1c(Nc2c(Cl)cccc2Cl)nc2ccc3nc(C(=O)NCCO)[nH]c(=O)c3c21 [Example 41], the melting point is reported as 265 to 268 °C.
In the case of Cn1c(Nc2c(Cl)cccc2Cl)nc2ccc3nc(C4=CCNC4)[nH]c(=O)c3c21 [Example 86], the melting point is reported as 240 to 241 °C (dec.).
Molecule Cn1c(Nc2c(Cl)cccc2Cl)nc2ccc3nc(-c4csc([C@@H]5CCCC[C@H]5NC(=O)OCc5ccccc5)n4)[nH]c(=O)c3c21 [Example 75] has a melting point of 163 to 169 °C.
For C/C(=C\c1cccc(N)c1)c1nc2ccc3nc(Nc4c(Cl)cccc4Cl)n(C)c3c2c(=O)[nH]1 [Example 84], the melting point was > 300 °C (dec.).
With Cn1c(Nc2c(Cl)cccc2Cl)nc2ccc3nc(-c4ccccn4)[nH]c(=O)c3c21 [Example 29] the melting point was > 300 °C.
Work on CCCCCC1NC(=O)c2c(ccc3nc(Nc4c(Cl)cccc4Cl)n(C)c23)N1C (stereo not shown) [Example 87] yielded a melting point of 126 to 128 °C.
Molecule Cn1c(Nc2c(Cl)cccc2Cl)nc2ccc3nc(-c4cccc(S(=O)(=O)N5CCN(C(=O)OC(C)(C)C)CC5)c4)[nH]c(=O)c3c21 [Example 67] has a melting point of 189 °C.
For Cn1c(Nc2c(Cl)cccc2Cl)nc2ccc3nc(-c4cccnc4)[nH]c(=O)c3c21 [Example 30], the melting point was > 300 °C.

Source: patent US6844435B2, “Heterocyclic compounds useful as inhibitors of tyrosine kinases” (Boehringer Ingelheim Pharmaceuticals, Inc., priority 2000, dated 2005)
